Where two headings read alike, the source gives them in different places.
Experiments:
[1] = molecular target: T1, isolated recombinant JAK1 kinase domain (Homo sapiens, UniProt P23458); assay: JAK enzyme assay, JAK1 kinase domain (Caliper LabChip); assay type: biochemical; conditions: 1.5 nM JAK1, ATP 25 μM, Morrison tight binding model
T1 construct: isolated recombinant JAK1 and JAK2 kinase domain
Protocol: (§1) JAK Enzyme Assays were Carried Out as Follows:
(§2) The activity of the isolated recombinant JAK1 and JAK2 kinase domain was measured by monitoring phosphorylation of a peptide derived from JAK3 ([…] fluorescently labeled on the N-terminus with 5-carboxyfluorescein) using the Caliper LabChip® technology (Caliper Life Sciences, Hopkinton, Mass.). To determine inhibition constants (K), compounds were diluted serially in DMSO and added to 50 μL kinase reactions containing purified enzyme (1.5 nM JAK1, or 0.2 nM JAK2), 100 mM HEPES buffer (pH 7.2), 0.015% Brij-35, 1.5 μM peptide substrate, ATP (25 μM), 10 mM MgCl2, 4 mM DTT at a final DMSO concentration of 2%.
(§3) Reactions were incubated at 22° C. in 384-well polypropylene microtiter plates for 30 minutes and then stopped by addition of 25 µL of an EDTA containing solution (100 mM HEPES buffer (pH 7.2), 0.015% Brij-35, 150 mM EDTA), resulting in a final EDTA concentration of 50 mM. After termination of the kinase reaction, the proportion of phosphorylated product was determined as a fraction of total peptide substrate using the Caliper LabChip® 3000 according to the manufacturer's specifications. K values were then determined using the Morrison tight binding model (Morrison, J. F., Biochim. Biophys. Acta. 185:269-296 (1969); William, J. W. and Morrison, J. F., Meth. Enzymol., 63:437-467 (1979)) modified for ATP-competitive inhibition [Ki=Ki, app/(1+[ATP]/Km,app)].

[2] = molecular target: T2, isolated recombinant JAK2 kinase domain (Homo sapiens, UniProt O60674); assay: JAK enzyme assay, JAK2 kinase domain (Caliper LabChip); assay type: biochemical; conditions: 0.2 nM JAK2, ATP 25 μM, Morrison tight binding model
T2 construct: isolated recombinant JAK1 and JAK2 kinase domain
Protocol: as §1, §2, §3

[3] = tested on: JAK1-dependent STAT6 phosphorylation downstream of IL-13 stimulation, BEAS-2B human bronchial epithelial cells; assay: JAK1 pathway assay in cell lines: IL-13 stimulated STAT6 phosphorylation in BEAS-2B cells (MSD); assay type: cell-based; conditions: IL-13 stimulation 15 min at EC90, read-out: IL-13 p-STAT6 BEAS-2B IC50
Protocol: JAK1 Pathway Assay in Cell Lines was Carried Out as Follows:
Inhibitor potency (EC50) was determined in cell-based assays designed to measure JAK1 dependent STAT phosphorylation. As noted above, inhibition of IL-4, IL-13, and IL-9 signaling by blocking the Jak/Stat signaling pathway can alleviate asthmatic symptoms in pre-clinical lung inflammation models (Mathew et al., 2001, J Exp Med 193(9): 1087-1096; Kudlacz et. al., 2008, Eur J. Pharmacol 582(1-3): 154-161).
In one assay approach, TF-1 human erythroleukemia cells obtained from the American Type Culture Collection (ATCC; Manassas, Va.) were used to measure JAK1-dependent STAT6 phosphorylation downstream of IL-13 stimulation. Prior to use in the assays, TF-1 cells were starved of GM-CSF overnight in OptiMEM medium (Life Technologies, Grand Island, N.Y.) supplemented with 0.5% charcoal/dextran stripped fetal bovine serum (FBS), 0.1 mM non-essential amino acids (NEAA), and 1 mM sodium pyruvate. The assays were run in 384-well plates in serum-free OptiMEM medium using 300,000 cells per well. In a second assay approach, BEAS-2B human bronchial epithelial cells obtained from ATCC were plated at 100,000 cells per well of a 96-well plate one day prior to the experiment. The BEAS-2B assay was run in complete growth medium (bronchial epithelial basal medium plus bulletkit; Lonza; Basel, Switzerland).
Test compounds were serially diluted 1:2 in DMSO and then diluted 1:50 in medium just before use. Diluted compounds were added to the cells, for a final DMSO concentration of […], and incubated for 30 m (for the TF-1 assay) or […] (for the BEAS-2B assay) at 37° C. Then, cells were stimulated with human recombinant cytokine at their respective EC90 concentrations, as previously determined for each individual lot. Cells were stimulated with IL-13 (R&D Systems, Minneapolis, Minn.) for 15 min at 37° C. The TF-1 cell reactions were stopped by the direct addition of 10× lysis buffer (Cell Signaling Technologies, Danvers, Mass.), whereas the BEAS-2B cell incubations were halted by the removal of medium and addition of 1× lysis buffer. The resultant samples were frozen in the plates at −80° C. Compound mediated inhibition of STAT6 phosphorylation was measured in the cell lysates using MesoScale Discovery (MSD) technology (Gaithersburg, Md.).

T1 sequence (P23458 875-1153 limits assumed): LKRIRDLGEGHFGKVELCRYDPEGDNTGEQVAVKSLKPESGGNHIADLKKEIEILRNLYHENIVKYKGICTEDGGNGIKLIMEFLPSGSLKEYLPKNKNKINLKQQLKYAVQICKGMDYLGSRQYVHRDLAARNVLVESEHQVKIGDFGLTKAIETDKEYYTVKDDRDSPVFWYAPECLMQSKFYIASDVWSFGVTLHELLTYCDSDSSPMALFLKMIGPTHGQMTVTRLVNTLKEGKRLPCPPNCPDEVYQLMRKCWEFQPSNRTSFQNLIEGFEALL
T2 sequence (O60674 849-1124 limits assumed): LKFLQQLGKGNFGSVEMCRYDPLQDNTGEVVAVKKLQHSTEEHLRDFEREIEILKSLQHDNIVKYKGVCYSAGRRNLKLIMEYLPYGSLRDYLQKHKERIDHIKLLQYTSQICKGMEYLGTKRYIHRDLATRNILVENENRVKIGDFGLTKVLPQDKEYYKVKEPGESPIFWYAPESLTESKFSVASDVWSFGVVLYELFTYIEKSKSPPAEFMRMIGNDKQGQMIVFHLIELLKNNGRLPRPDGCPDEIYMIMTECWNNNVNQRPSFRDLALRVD

Row | Compound | Ki [1] | Ki [2] | IC50 [3] | IC50 ([3]; Homo sapiens, BEAS-2B, […])
1 | O=C(Nc1cn(C2CCOC2=O)nc1-c1cc(SC(F)F)ccc1OC(F)F)c1cnn2cccnc12 (single isomer, unassigned) [Example 32, N-[3-[2-(difluoromethoxy)-5-(difluoromethyl-sulfanyl)phenyl]-1-(2-oxotetrahydrofuran-3-yl)pyrazol-4-yl]pyrazolo[1,5-a]pyrimidine-3-carboxamide] | 0.17 nM | 0.11 nM | 6.6 nM | –
2 | O=C(Nc1cn(C2CCOC2=O)nc1-c1cc(OC(F)F)ccc1OC(F)F)c1cnn2cccnc12 (single isomer, unassigned) [Example 36, N-[3-[2,5-bis(difluoromethoxy)phenyl]-1-(2-oxotetrahydrofuran-3-yl)pyrazol-4-yl]pyrazolo[1,5-a]pyrimidine-3-carboxamide] | 0.65 nM | 0.4 nM | – | 18 nM
3 | O=C(Nc1cn(C2CCOC2=O)nc1-c1cc(OC(F)F)ccc1OC(F)F)c1cnn2cccnc12 (single isomer, unassigned) [Example 37, N-[3-[2,5-bis(difluoromethoxy)phenyl]-1-(2-oxotetrahydrofuran-3-yl)pyrazol-4-yl]pyrazolo[1,5-a]pyrimidine-3-carboxamide] | 0.26 nM | 0.18 nM | 14 nM | –
4 | CS(=O)(=O)c1ccc(OC(F)F)c(-c2nn(C3CCOC3=O)cc2NC(=O)c2cnn3cccnc23)c1 (single isomer, unassigned) [Example 40, N-[3-[2-(difluoromethoxy)-5-methylsulfonyl-phenyl]-1-(2-oxotetrahydrofuran-3-yl)pyrazol-4-yl]pyrazolo[1,5-a]pyrimidine-3-carboxamide] | 1.1 nM | 0.62 nM | – | 120 nM
5 | CS(=O)(=O)c1ccc(OC(F)F)c(-c2nn(C3CCOC3=O)cc2NC(=O)c2cnn3cccnc23)c1 (single isomer, unassigned) [Example 41, N-[3-[2-(difluoromethoxy)-5-methylsulfonyl-phenyl]-1-(2-oxotetrahydrofuran-3-yl)pyrazol-4-yl] pyrazolo[1,5-a]pyrimidine-3-carboxamide] | 0.4 nM | 0.23 nM | 99 nM | –
6 | CN1CC[C@H](n2cc(NC(=O)c3cnn4cccnc34)c(-c3cc(Cl)ccc3OC(F)F)n2)C1=O (stereo in doubt) [Example 2, N-[3-[5-chloro-2-(difluoromethoxy)phenyl]-1-[rac-(3S)-1-methyl-2-oxo-pyrrolidin-3-yl]pyrazol-4-yl]pyrazolo[1,5-a]pyrimidine-3-carboxamide] | 0.21 nM | 0.4 nM | – | 12 nM
7 | CN1CC[C@@H](n2cc(NC(=O)c3cnn4cccnc34)c(-c3cc(Cl)ccc3OC(F)F)n2)C1=O (stereo in doubt) [Example 3, N-[3-[5-chloro-2-(difluoromethoxy)phenyl]-1-[rac-(3R)-1-methyl-2-oxo-pyrrolidin-3-yl]pyrazol-4-yl]pyrazolo[1,5-a]pyrimidine-3-carboxamide] | 2.5 nM | 0.81 nM | – | 50 nM
8 | Cn1[nH]cc(-n2cc(NC(=O)c3cnn4cccnc34)c(-c3cc(Cl)ccc3OC(F)F)n2)c1=O [Example 26] | 1.4 nM | 0.14 nM | – | 280 nM

Source: patent publication US20200339604A1, “PYRAZOLOPYRIMIDINE COMPOUNDS AS JAK INHIBITORS” (Genentech, Inc., priority 2018, published 2020)
